Measured values: ChEMBL document CHEMBL1201862, “PubChem BioAssay data set” (2004)
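48-hour exposure; five concentrations; linearly interpolated endpoints. GI50: concentration for 50% inhibition of growth.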 Calls of active or inactive are those of the source. No stated cut-off is given here; in the data, active = GI50 up to about 1.1 µM and inactive = higher.

Legend:
Assay in all cases: NCI tumour cell line growth inhibition, 48 h
[1] = test system: RXF 631
[2] = test system: KM12
[3] = test system: UACC-257
[4] = test system: HCT-116
[5] = test system: SK-OV-3
[6] = test system: M19-MEL
[7] = test system: TK-10
[8] = test system: SK-MEL-28
[9] = test system: SNB-19
[10] = test system: CCRF-CEM
[11] = test system: HT-29
[12] = test system: EKVX
[13] = test system: MOLT-4
[14] = test system: HOP-92
[15] = test system: SF-295
[16] = test system: KM-20L2
[17] = test system: OVCAR-5
[18] = test system: RXF 393
[19] = test system: UO-31
[20] = test system: SR
[21] = test system: OVCAR-8
[22] = test system: U-251
[23] = test system: A498
[24] = test system: NCI-H460
[25] = test system: NCI-H522
[26] = test system: DMS-114
[27] = test system: SNB-78
[28] = test system: UACC-62
[29] = test system: A549
[30] = test system: M14
[31] = test system: NCI-H23
[32] = test system: HOP-62
[33] = test system: IGROV-1
[34] = test system: HL-60
[35] = test system: DMS-273
[36] = test system: ACHN
[37] = test system: SK-MEL-2
[38] = test system: LOX IMVI
[39] = test system: NCI/ADR-RES
[40] = test system: SF-268
[41] = test system: DU-145
[42] = test system: COLO 205
[43] = test system: MDA-MB-435
[44] = test system: SK-MEL-5
[45] = test system: NCI-H226
[46] = test system: T47D
[47] = test system: SN12C
[48] = test system: DLD-1
[49] = test system: OVCAR-3
[50] = test system: RPMI-8226
[51] = test system: HOP-18
[52] = test system: CAKI-1
[53] = test system: SW-620
[54] = test system: SNB-75
[55] = test system: MDA-MB-231
[56] = test system: MCF7
[57] = test system: MDA-N
[58] = test system: XF498
[59] = test system: SF-539
[60] = test system: Hs-578T
[61] = test system: K562
[62] = test system: PC-3
[63] = test system: HCT-15
[64] = test system: OVCAR-4
[65] = test system: BT-549
[66] = test system: LXFL 529
[67] = test system: Malme-3M
[68] = test system: HCC 2998
[69] = test system: 786-0

NC(CCc1nc(-c2cccc([N+](=O)[O-])c2)cs1)C(=O)O (configuration not stated)
GI50 [1]: > 100 µM (inactive)
GI50 [2]: > 100 µM (inactive)
GI50 [3]: > 100 µM (inactive)
GI50 [4]: > 100 µM (inactive)
GI50 [5]: > 100 µM (inactive)
GI50 [6]: > 100 µM (inactive)
GI50 [7]: > 100 µM (inactive)
GI50 [8]: > 100 µM (inactive)
GI50 [9]: > 100 µM (inactive)
GI50 [10]: > 100 µM (inactive)
GI50 [11]: > 100 µM (inactive)
GI50 [12]: > 100 µM (inactive)
GI50 [13]: > 100 µM (inactive)
GI50 [14]: > 100 µM (inactive)
GI50 [15]: > 100 µM (inactive)
GI50 [16]: > 100 µM (inactive)
GI50 [17]: > 100 µM (inactive)
GI50 [18]: > 100 µM (inactive)
GI50 [19]: > 100 µM (inactive)
GI50 [20]: > 100 µM (inactive)
GI50 [21]: > 100 µM (inactive)
GI50 [22]: > 100 µM (inactive)
GI50 [23]: > 100 µM (inactive)
GI50 [24]: > 100 µM (inactive)
GI50 [25]: > 100 µM (inactive)
GI50 [26]: > 100 µM (inactive)
GI50 [27]: > 100 µM (inactive)
GI50 [28]: > 100 µM (inactive)
GI50 [29]: > 100 µM (inactive)
GI50 [30]: > 100 µM (inactive)
GI50 [31]: > 100 µM (inactive)
GI50 [32]: > 100 µM (inactive)
GI50 [33]: > 100 µM (inactive)
GI50 [34]: > 100 µM (inactive)
GI50 [35]: > 100 µM (inactive)
GI50 [36]: > 100 µM (inactive)

NC(=O)c1ncn2c(=O)n(CCCl)nnc12 [MITOZOLOMIDE]
GI50 [37]: 249 µM (inactive)
GI50 [2]: 180 µM (inactive)
GI50 [38]: 22.8 µM (inactive)
GI50 [39]: 168 µM (inactive)
GI50 [3]: 159 µM (inactive)
GI50 [40]: 31.6 µM (inactive)
GI50 [41]: 123 µM (inactive)
GI50 [4]: 132 µM (inactive)
GI50 [5]: 52.6 µM (inactive)
GI50 [42]: 112 µM (inactive)
GI50 [6]: 172 µM (inactive)
GI50 [7]: 229 µM (inactive)
GI50 [43]: 170 µM (inactive)
GI50 [44]: 156 µM (inactive)
GI50 [45]: 158 µM (inactive)
GI50 [46]: 214 µM (inactive)
GI50 [47]: 115 µM (inactive)
GI50 [8]: 252 µM (inactive)
GI50 [48]: 182 µM (inactive)
GI50 [49]: 205 µM (inactive)
GI50 [9]: 93.5 µM (inactive)
GI50 [10]: 32.9 µM (inactive)
GI50 [11]: 156 µM (inactive)
GI50 [12]: 197 µM (inactive)
GI50 [13]: 45.2 µM (inactive)
GI50 [50]: 229 µM (inactive)
GI50 [14]: 136 µM (inactive)
GI50 [51]: 323 µM (inactive)
GI50 [52]: 107 µM (inactive)
GI50 [53]: 135 µM (inactive)
GI50 [54]: 50 µM (inactive)
GI50 [15]: 37.7 µM (inactive)
GI50 [55]: 220 µM (inactive)
GI50 [16]: 141 µM (inactive)
GI50 [56]: 120 µM (inactive)
GI50 [17]: 225 µM (inactive)
GI50 [18]: 160 µM (inactive)
GI50 [19]: 236 µM (inactive)
GI50 [20]: 47.3 µM (inactive)
GI50 [21]: 101 µM (inactive)
GI50 [22]: 40.4 µM (inactive)
GI50 [23]: 191 µM (inactive)
GI50 [57]: 137 µM (inactive)
GI50 [58]: 12.1 µM (inactive)
GI50 [59]: 31 µM (inactive)
GI50 [24]: 50.2 µM (inactive)
GI50 [60]: 208 µM (inactive)
GI50 [25]: 131 µM (inactive)
GI50 [61]: 94.4 µM (inactive)
GI50 [26]: 19.8 µM (inactive)
GI50 [62]: 177 µM (inactive)
GI50 [27]: 185 µM (inactive)
GI50 [28]: 24.7 µM (inactive)
GI50 [63]: 175 µM
GI50 [64]: 187 µM (inactive)
GI50 [65]: 83.2 µM (inactive)
GI50 [66]: > 100 µM (inactive)
GI50 [29]: 180 µM (inactive)
GI50 [67]: 145 µM (inactive)
GI50 [30]: 195 µM (inactive)
GI50 [31]: 149 µM (inactive)
GI50 [32]: 29.5 µM (inactive)
GI50 [68]: 172 µM (inactive)
GI50 [69]: 28.8 µM (inactive)
GI50 [33]: 132 µM (inactive)
GI50 [34]: 30.8 µM (inactive)
GI50 [35]: 57.4 µM (inactive)
GI50 [36]: 60.4 µM (inactive)

CC1=CC(=O)c2cccc(O)c2C1=O
GI50 [37]: 2.09 µM (inactive)
GI50 [2]: 12.6 µM (inactive)
GI50 [38]: 2.52 µM (inactive)
GI50 [39]: 1.82 µM (inactive)
GI50 [3]: 1.79 µM (inactive)
GI50 [40]: 6.76 µM (inactive)
GI50 [41]: 8.05 µM (inactive)
GI50 [4]: 1.91 µM (inactive)
GI50 [5]: 14.3 µM (inactive)
GI50 [42]: 2.09 µM (inactive)
GI50 [6]: 1.98 µM (inactive)
GI50 [7]: 2.43 µM (inactive)
GI50 [43]: 1.78 µM (inactive)
GI50 [44]: 1.79 µM (inactive)
GI50 [45]: 7.28 µM (inactive)
GI50 [46]: 1.77 µM (inactive)
GI50 [47]: 2.32 µM (inactive)
GI50 [8]: 4.25 µM (inactive)
GI50 [48]: 1.66 µM (inactive)
GI50 [49]: 1.53 µM (inactive)
GI50 [9]: 8.07 µM (inactive)
GI50 [10]: 1.91 µM (inactive)
GI50 [11]: 4.27 µM (inactive)
GI50 [12]: 4.29 µM (inactive)
GI50 [13]: 0.473 µM (active)
GI50 [50]: 3.53 µM (inactive)
GI50 [14]: 1.85 µM (inactive)
GI50 [51]: 1.7 µM (inactive)
GI50 [52]: 1.88 µM (inactive)
GI50 [53]: 1.99 µM (inactive)
GI50 [54]: 8.73 µM (inactive)
GI50 [15]: 14.3 µM (inactive)
GI50 [55]: 1.76 µM (inactive)
GI50 [16]: 20.5 µM (inactive)
GI50 [56]: 1.99 µM (inactive)
GI50 [17]: 8.09 µM (inactive)
GI50 [18]: 1.88 µM (inactive)
GI50 [19]: 1.79 µM (inactive)
GI50 [20]: 1.8 µM (inactive)
GI50 [21]: 2.56 µM (inactive)
GI50 [22]: 16.5 µM (inactive)
GI50 [23]: 18.5 µM (inactive)
GI50 [57]: 1.9 µM (inactive)
GI50 [58]: 1.79 µM (inactive)
GI50 [59]: 5.7 µM (inactive)
GI50 [24]: 5.75 µM (inactive)
GI50 [60]: 3.07 µM (inactive)
GI50 [25]: 2.25 µM (inactive)
GI50 [61]: 3.02 µM (inactive)
GI50 [26]: 2.74 µM (inactive)
GI50 [62]: 2.1 µM (inactive)
GI50 [27]: > 32.1 µM (inactive)
GI50 [28]: 1.96 µM (inactive)
GI50 [63]: 1.56 µM
GI50 [64]: 1.92 µM (inactive)
GI50 [65]: 1.75 µM (inactive)
GI50 [66]: 1.67 µM (inactive)
GI50 [29]: 14.9 µM (inactive)
GI50 [67]: 1.62 µM (inactive)
GI50 [30]: 1.81 µM (inactive)
GI50 [31]: 2.96 µM (inactive)
GI50 [32]: 17.1 µM (inactive)
GI50 [68]: 8.57 µM (inactive)
GI50 [69]: 1.7 µM (inactive)
GI50 [33]: 13.2 µM (inactive)
GI50 [34]: 0.935 µM (active)
GI50 [35]: 2.42 µM (inactive)
GI50 [36]: 1.78 µM (inactive)
